Measured values reported in the supplement of paper PMC10307832.

Experiments:
Assay in all cases: relative viability (nuclei count vs DMSO), 5 days (fraction); higher = more cells survive
Kobe2602 + Trametinib = compound: C1=CC(=CC=C1NC(=S)NNC2=C(C=C(C=C2[N+](=O)[O-])C(F)(F)F)[N+](=O)[O-])F [Kobe2602] + CC(=O)Nc1cccc(-n2c(=O)n(C3CC3)c(=O)c3c(Nc4ccc(I)cc4F)n(C)c(=O)c(C)c32)c1 [Trametinib] (partner 0.02 µM)
How it was run: (§1)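 Lung cancer cell lines were seeded in 1536-well plates and dosed by pin tool the next day, with either a single drug or a fixed anchor-drug dose combined with five library-drug doses (not always all listed) spaced in √10 steps. Five days later, one step fixed the cells and stained their nuclei (final 0.05% Triton X-100, 1% formaldehyde, 1 ug/ml Hoechst), and nuclei were counted on 4× images. Relative viability is the nuclei count in treated wells divided by the count in vehicle wells, and each value is the median of duplicate plates.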

Kobe2602 + Pemetrexed = compound: C1=CC(=CC=C1NC(=S)NNC2=C(C=C(C=C2[N+](=O)[O-])C(F)(F)F)[N+](=O)[O-])F [Kobe2602] + Nc1nc2[nH]cc(CCc3ccc(C(=O)N[C@@H](CCC(=O)O)C(=O)O)cc3)c2c(=O)[nH]1 [Pemetrexed] (partner 0.2 µM)
How it was run: as §1

Zosuquidar + Alpelisib = compound: O[C@@H](COc1cccc2ncccc12)CN1CCN([C@@H]2c3ccccc3[C@@H]3[C@H](c4ccccc42)C3(F)F)CC1 [Zosuquidar] + Cc1nc(NC(=O)N2CCC[C@H]2C(N)=O)sc1-c1ccnc(C(C)(C)C(F)(F)F)c1 [Alpelisib] (partner 2 µM)
How it was run: as §1

Zosuquidar + Decitabine = compound: O[C@@H](COc1cccc2ncccc12)CN1CCN([C@@H]2c3ccccc3[C@@H]3[C@H](c4ccccc42)C3(F)F)CC1 [Zosuquidar] + Nc1ncn([C@H]2C[C@H](O)[C@@H](CO)O2)c(=O)n1 [Decitabine] (partner 2 µM)
How it was run: as §1

Row | Cell Line | relative viability (Kobe2602 + Trametinib; first compound 0.2 µM) | relative viability (Kobe2602 + Trametinib; first compound 0.6325 µM) | relative viability (Kobe2602 + Trametinib; first compound 2 µM) | relative viability (Kobe2602 + Trametinib; first compound 6.325 µM) | relative viability (Kobe2602 + Trametinib; first compound 20 µM) | relative viability (Kobe2602 + Pemetrexed; first compound 0.2 µM) | relative viability (Kobe2602 + Pemetrexed; first compound 0.6325 µM) | relative viability (Kobe2602 + Pemetrexed; first compound 2 µM) | relative viability (Kobe2602 + Pemetrexed; first compound 6.325 µM) | relative viability (Kobe2602 + Pemetrexed; first compound 20 µM) | relative viability (Zosuquidar + Alpelisib; first compound 0.01 µM) | relative viability (Zosuquidar + Alpelisib; first compound 0.03162 µM) | relative viability (Zosuquidar + Alpelisib; first compound 0.1 µM) | relative viability (Zosuquidar + Alpelisib; first compound 0.3162 µM) | relative viability (Zosuquidar + Alpelisib; first compound 1 µM) | relative viability (Zosuquidar + Decitabine; first compound 0.01 µM) | relative viability (Zosuquidar + Decitabine; first compound 0.03162 µM) | relative viability (Zosuquidar + Decitabine; first compound 0.1 µM) | relative viability (Zosuquidar + Decitabine; first compound 0.3162 µM) | relative viability (Zosuquidar + Decitabine; first compound 1 µM)
1 | NCI-H358 | 0.138 | 0.15 | 0.135 | 0.16 | 0.141 | 0.196 | 0.208 | 0.17 | 0.166 | 0.178 | 0.914 | 0.833 | 0.832 | 0.839 | 0.893 | 0.23 | 0.194 | 0.214 | 0.255 | 0.19
2 | NCI-H3122 | 0.257 | 0.242 | 0.211 | 0.214 | 0.238 | 0.189 | 0.191 | 0.198 | 0.187 | 0.208 | 0.714 | 0.769 | 0.679 | 0.764 | 0.763 | 0.394 | 0.449 | 0.417 | 0.508 | 0.457
3 | 201T | 0.711 | 0.715 | 0.741 | 0.771 | 0.677 | 0.353 | 0.366 | 0.341 | 0.379 | 0.288 | 0.891 | 0.965 | 0.896 | 1.01 | 1.06 | 0.848 | 0.858 | 0.837 | 0.867 | 0.864
4 | SK-LU-1 | 0.519 | 0.506 | 0.469 | 0.439 | 0.58 | 0.969 | 0.978 | 1.02 | 0.963 | 0.953 | 0.954 | 1.04 | 1.17 | 1.26 | 0.895 | 0.652 | 0.66 | 0.684 | 0.679 | 0.638
5 | NCI-H1734 | 0.618 | 0.77 | 0.664 | 0.711 | 0.695 | 0.445 | 0.419 | 0.422 | 0.418 | 0.398 | 0.815 | 0.666 | 0.631 | 0.809 | 0.643 | 0.522 | 0.537 | 0.525 | 0.456 | 0.565
6 | NCI-H1651 | 0.822 | 0.827 | 0.847 | 0.87 | 0.875 | 0.526 | 0.51 | 0.569 | 0.573 | 0.731 | 1.05 | 1.02 | 0.856 | 0.915 | 0.975 | 0.644 | 0.685 | 0.483 | 0.617 | 0.588
7 | PC-3 [JPC-3] | 0.69 | 0.699 | 0.7 | 0.683 | 0.668 | 1.26 | 1.33 | 1.11 | 1.11 | 1.06 | 0.986 | 1 | 0.91 | 1.03 | 0.994 | 0.886 | 0.925 | 0.791 | 0.859 | 0.79
8 | NCI-H1915 | 0.291 | 0.312 | 0.292 | 0.312 | 0.346 | 0.489 | 0.498 | 0.458 | 0.503 | 0.45 | 1.04 | 1.1 | 0.989 | 1.06 | 1.08 | 0.278 | 0.252 | 0.279 | 0.288 | 0.269
9 | COR-L23 | 0.569 | 0.587 | 0.575 | 0.549 | 0.679 | 0.209 | 0.2 | 0.212 | 0.204 | 0.204 | 0.88 | 0.783 | 0.789 | 0.902 | 0.723 | 0.501 | 0.421 | 0.511 | 0.469 | 0.468
10 | HOP-62 | 0.446 | 0.39 | 0.355 | 0.415 | 0.415 | 0.43 | 0.336 | 0.312 | 0.323 | 0.316 | 1.05 | 0.79 | 0.907 | 1.08 | 0.988 | 0.215 | 0.223 | 0.25 | 0.203 | 0.21
11 | NCI-H1975 | 0.332 | 0.333 | 0.328 | 0.29 | 0.352 | 0.271 | 0.306 | 0.265 | 0.294 | 0.286 | 0.624 | 0.653 | 0.679 | 0.675 | 0.713 | 0.4 | 0.402 | 0.423 | 0.411 | 0.547
12 | BEN | 1.01 | 1.16 | 1.17 | 1.06 | 1.14 | 0.736 | 0.803 | 0.724 | 0.846 | 0.98 | 1.07 | 0.968 | 0.815 | 1 | 1.21 | 0.695 | 0.664 | 0.659 | 0.822 | 0.787
13 | EMC-BAC-2 | 0.822 | 0.874 | 0.898 | 0.91 | 0.807 | 0.459 | 0.453 | 0.445 | 0.492 | 0.457 | 0.715 | 0.793 | 0.677 | 0.82 | 0.761 | 0.915 | 0.991 | 0.9 | 1.14 | 0.964
